Reference: patent publication US8840886B2, “Method of treating cancer with DLL4 antagonist and chemotherapeutic agent” (Regeneron Pharmaceuticals, Inc., priority 2009, dated 2014)

What was measured:
Format in all cases: in vivo, mouse
[1] = system: human HCT116 tumor cells (CRC); assay: HCT116 colorectal xenograft tumor growth, REGN421 with 5-FU (Example 5)
Experimental: The effect of anti-Dll4 Ab (REGN421) in combination with 5-FU on tumor growth was evaluated on tumors implanted in humanized Dll4 SCID mice. Each mouse was implanted subcutaneously (sc) with 5×10^6 human HCT116 tumor cells (CRC). After the tumors were established in the mice (tumor size of ˜150 mm^3, 22 days after implantation), tumors were measured and randomized. The mice were then treated with hFc, REGN421, 5-FU or combination of REGN421 and 5-FU. A total of 30 mice were divided into 6 groups (n=5 per cohort). The first group was treated sc with hFc at 2 mg/kg; the second group was treated sc with REGN421 at 2 mg/kg; the third and fourth groups were treated ip with 5-FU at 15 and 25 mg/kg, respectively; the fifth group was treated sc with REGN421 at 2 mg/kg and ip with 5-FU at 15 mg/kg; and the sixth group was treated sc with REGN421 at 2 mg/kg and ip with 5-FU at 25 mg/kg. REGN421 was administered every 3-4 days starting on day 22 and mice received three doses total. 5-FU was administered every 3-4 days starting on day 22 and mice received three doses total.
(§1) To assess the effects of REGN421 and 5-FU as single agents or in combination, the changes in tumor size (volume) were measured, beginning three days before the initial REGN421 treatment, and then on the day of each agent treatment (days 22, 26, 29) and thereafter every 3-4 days until tumors reach ˜600 mm^3 in size. In vivo tumor size is calculated using the formula (length×width^2)/2 (FIG. 3 and Table 5).

[2] = system: human A549 tumor cells (non-small cell lung cancer); assay: A549 NSCLC xenograft tumor growth, REGN421 with cisplatin (Example 2)
Experimental: The effect of REGN421 in combination with cisplatin on tumor growth was evaluated on tumors implanted in humanized Dll4 SCID mice, as described above. Each mouse was implanted subcutaneously (sc) with 5×10^6 human A549 tumor cells (non-small cell lung cancer or “NSCLC”). After the tumors were established in the mice (tumor size of 100-150 mm^3, approximately 29 days after implantation), tumors were measured, randomized and treated with hFc, REGN421, cisplatin or combination of REGN421 and cisplatin. A total of 36 mice were divided into 6 groups (n=6 per cohort). The first group was treated sc with hFc at 2 mg/kg; the second group was treated sc with REGN421 at 2 mg/kg; the third and fourth groups were treated ip with cisplatin at 2.5 and 4.5 mg/kg, respectively; the fifth group was treated sc with REGN421 at 2 mg/kg and ip with cisplatin at 2.5 mg/kg; and the sixth group was treated sc with REGN421 at 2 mg/kg and ip with cisplatin at 4.5 mg/kg. REGN421 was administered every 3-4 days starting on day 29 and mice received three doses total. Cisplatin was administered every 24 hours starting on day 29 and mice received two doses total.
To assess the effects of REGN421 and cisplatin as single agents or in combination we measured tumor size (volume), beginning three days before the initial REGN421 treatment, on the day of each agent treatment (days 29, 30, 33, 36) and thereafter every 3-4 days until tumors reached ˜600 mm^3 in size. In vivo tumor size was calculated using the formula (length×width^2)/2.

[3] = system: human VM-Cub1 tumor cells (bladder carcinoma cells); assay: VM-Cub1 bladder carcinoma xenograft tumor growth, REGN421 with cisplatin (Example 1); conditions: for TGI: 4 doses, at day 32; for Euthanized: control cohort euthanized day 32; for TGD: time to 600 mm^3 vs control
Experimental: The effect of anti-Dll4 antibody (REGN421) in combination with cisplatin (platinol, cis-diamminedichloroplatinum) on tumor growth was evaluated on tumors implanted in Severe Combined Immunodeficiency (SCID) mice expressing a humanized Dll4 protein (humanized Dll4 SCID mice). The humanized Dll4 SCID mouse was made by replacing the entire extracellular domain of the mouse Dll4 gene with the corresponding extracellular region of the human Dll4 gene (7 kb) in embryonic stem (ES) cells. Homozygous hDll4 mice were generated and bred into SCID background.
Each mouse was implanted subcutaneously (sc) with 1×10^6 human VM-Cub1 tumor cells (bladder carcinoma cells) plus MATRIGEL™ (BD Biosciences, #354234). After the tumors were established in the mice (tumor size of 150-200 mm^3, approximately 14 days after implantation), tumors were measured, randomized and treated with hFc, REGN421, cisplatin, or combination of REGN421 and cisplatin. A total of 45 mice were divided into nine groups (n=5 per cohort). The first group was treated subcutaneously (sc) with hFc at 2 mg/kg; the second and third groups were treated sc with REGN421 at 0.5 and 2 mg/kg, respectively; the fourth and fifth groups were treated intraperitoneally (ip) with cisplatin at 0.5 and 2 mg/kg, respectively; the sixth group was treated sc with REGN421 at 0.5 mg/kg and ip with cisplatin at 0.5 mg/kg; the seventh group was treated sc with REGN421 at 0.5 mg/kg and ip with cisplatin at 2 mg/kg; the eighth group was treated sc with REGN421 at 2 mg/kg and ip with cisplatin at 0.5 mg/kg; and the ninth group was treated sc with REGN421 at 2 mg/kg and ip with cisplatin at 2 mg/kg. REGN421 was administered every 3-4 days starting on day 14 and mice received three doses total. Cisplatin was administered every 24 hours starting on day 14; mice received four doses total.
To assess the effects of REGN421 and cisplatin as single agents or in combination treatments, the changes in tumor size were recorded. Tumor growth was measured three days before the initial REGN421 treatment, on the day of each REGN421 treatment (days 14, 17 and 21) and thereafter every 3-4 days until tumors reached ˜600 mm^3 in size. In vivo tumor size was calculated using the formula (length×width^2)/2 (FIG. 1 and Table 1).
Tumor Growth Inhibition, TGI, was determined by calculating the difference in tumor size for treated (T) versus vehicle control (C) tumor at the day the control cohort was euthanized (i.e., at day 32); TGI=[1−(Tfinal−Tinitial)/(Cfinal−Cinitial)]×100.
Tumor growth delay, TGD, was assessed as the difference in days between treated (T) versus control (C) tumors when each cohort reached a specified tumor size. The predetermined tumor size for this experiment was 600 mm^3.

[4] = system: human MDA-MB-231 breast tumor cells; assay: MDA-MB-231 breast tumor growth in SCID mice, REGN577 with docetaxel (Example 4); conditions: for reduction of tumor growth: at Day 63
Experimental: The effect of anti-Dll4 antibody in combination with docetaxel (TAXOTERE®, sanofi-aventis) on tumor growth was evaluated on tumors implanted in Severe Combined Immunodeficiency (SCID) mice. Each mouse was implanted ‘pseudo-orthotopically’ (subcutaneously into mammary gland #3) with 5×10^6 human MDA-MB-231 breast tumor cells with MATRIGEL™ (BD Biosciences lot #84540). After the tumors were established in the mice (tumor size of ˜150-200 mm^3, approximately 45 days after implantation), mice were treated with hFc, docetaxel, Dll4 antibody, or a combination of docetaxel plus Dll4 antibody. A total of 25 tumor-bearing […] mice were randomized into five groups (N=5 mice per group). The first group was treated subcutaneously with hFc (at 25 mg/kg) and intravenously (iv) with vehicle; the second group was treated with Dll4 antibody REGN577 sc at 5 mg/kg; the third group was treated with docetaxel iv at 4.5 mg/kg; the fourth group was treated with docetaxel iv at 6 mg/kg; the fifth group was treated with docetaxel iv at 6 mg/kg plus REGN577 sc at 5 mg/kg. Docetaxel and/or Dll4 antibody were administered on the same day. Animals were treated 2 times per week and received a total of 3 doses. Starting from the day of initial treatment, body weight and tumors were measured twice a week until the mice are euthanized. Mice were euthanized when tumors reached ˜600 mm^3 in size. Tumor size was calculated using the formula (length×width^2)/2.

[5] = system: rat C6 tumor cells (glioblastoma cells); assay: C6 glioblastoma tumor growth in SCID mice, REGN577 with docetaxel (Example 3)
Experimental: The effect of anti-Dll4 antibody in combination with docetaxel (TAXOTERE®) on tumor growth was evaluated on tumors implanted in Severe Combined Immunodeficiency (SCID) mice. Each mouse was implanted subcutaneously (sc) with 1×10^6 rat C6 tumor cells (glioblastoma cells). After the tumors were established (tumor size of ˜100-150 mm^3, approximately 13 days after implantation), the mice were treated with hFc, docetaxel, Dll4 antibody, or a combination of docetaxel plus Dll4 antibody. Since these mice expressed mouse Dll4, the Dll4 Ab used in this experiment was prepared in-house, based on the published sequence (WO 2007/143689), and designated as REGN 577. […] A total of 30 tumor-bearing male mice were randomized into six groups (N=5). […] Starting from the day of initial treatment, body weight and tumors were measured twice a week until the mice were euthanized when tumors reached ˜600 mm^3 in size. Tumor size was calculated using the formula, (length×width^2)/2.

human HCT116 tumor cells = assay: HCT116 xenograft tumor growth, REGN421 with irinotecan (Example 6)
Experimental: Each mouse was implanted subcutaneously (sc) with 5×10^6 human HCT116 tumor cells. After the tumors were established in the mice (tumor size of ˜150 mm^3, 15 days after implantation), tumors were measured and randomized. The mice were then treated with hFc, REGN421, irinotecan or combination of REGN421 and irinotecan. A total of 30 mice were divided into 6 groups (n=5 per cohort). The first group was treated sc with hFc at 2 mg/kg; the second group was treated sc with REGN421 at 2 mg/kg; the third and fourth groups were treated ip with irinotecan at 7.5 and 25 mg/kg, respectively; the fifth group was treated sc with REGN421 at 2 mg/kg and ip with irinotecan at 7.5 mg/kg; and the sixth group was treated sc with REGN421 at 2 mg/kg and ip with irinotecan at 25 mg/kg. REGN421 was administered every 3-4 days starting on day 15 and mice received three doses total. Irinotecan was administered every 3-4 days starting on day 15 and mice received three doses total.
as §1, with “irinotecan” for “5-FU”, “combination treatments,” for “combination,”, “are” for “were”, “starting” for “beginning”, “15, 19, 22)” for “22, 26, 29)”, “(length×width^2)/2.” for “(length×width^2)/2 (FIG. 3 and Table 5).”

[6] = docetaxel 4.5 mg/kg iv (13.5 mg/kg total dose)
[7] = docetaxel 6 mg/kg iv (18 mg/kg total dose)

## O=c1[nH]cc(F)c(=O)[nH]1 [5-FU, 5-fluorouracil]
[1]; 5-FU 15 mg/kg ip (45 mg/kg total dose)
  TGD: 4 days
[1]; 5-FU 25 mg/kg ip (75 mg/kg total dose)
  TGD: 2 days

## N.N.[Cl][Pt][Cl] [Cisplatin, cis-diamminedichloroplatinum]
[2]; cisplatin 2.5 mg/kg ip (5 mg/kg total dose)
  TGD: 4 days
[2]; cisplatin 4.5 mg/kg ip (9 mg/kg total dose)
  TGD: 11 days
[3]; cisplatin 0.5 mg/kg/dose ip
  TGI: 60.7%
  Euthanized: 45 days
  TGD: 13 days
[3]; cisplatin 0.5 mg/kg/dose ip, listed as cisplatin
  TGI: 61%
[3]; cisplatin 2 mg/kg/dose ip
  TGI: 53.8%
  Euthanized: 41 days
  TGD: 9 days
[3]; cisplatin 2 mg/kg/dose ip, listed as cisplatin
  TGI: 54%

## CC(=O)O[C@@]12CO[C@@H]1C[C@H](O)[C@@]1(C)C(=O)[C@H](O)C3=C(C)[C@@H](OC(=O)[C@H](O)[C@@H](NC(=O)OC(C)(C)C)c4ccccc4)C[C@@](O)([C@@H](OC(=O)c4ccccc4)[C@H]21)C3(C)C [Docetaxel, docetaxel]
[4]; [6]
  TGD: 4 days
[4]; docetaxel 4.5 mg/kg iv
  reduction of tumor growth: 37%
[4]; [7]
  TGD: 4 days
[4]; docetaxel 6 mg/kg iv
  reduction of tumor growth: 52%
[5]; [6]
  TGD: 6 days
[5]; [7]
  TGD: 7 days

## CCc1c2c(nc3ccc(OC(=O)N4CCC(N5CCCCC5)CC4)cc13)-c1cc3c(c(=O)n1C2)COC(=O)[C@]3(O)CC [Irinotecan, irinotecan]
Human HCT116 tumor cells; irinotecan 7.5 mg/kg ip (22.5 mg/kg total dose)
  TGD: 8 days
Human HCT116 tumor cells; irinotecan 25 mg/kg ip (75 mg/kg total dose)
  TGD: 16 days
